Test: Bioavailability / systemic FP plasma concentration after oral nebulization of the liquid composition containing FP
Assay type: in vivo, human
Procedure: The solutions have been administered to 26 healthy volunteers, among whom 16 were males and 10 females, aged between 18 and 55.
The healthy volunteers received the pharmaceutical composition prepared according to Example 1 in two 200 μl nebulizations three times a day, for a seven-day period, then a single administration on the eighth day.
[…]
During the period of administration of the composition object of the present invention, blood samples were taken before each administration and on days 1, 4, 6, 7 and 8.
The plasma concentration was determined for each patient before the first dose and, successively, in the morning of the days 1, 4, 6, 7 and 8 and after 1, 2, 3, 4, 6, 8, 10, 12, 16 and 24 hours since the last treatment.
Each sample was moved into a test tube containing heparin and centrifuged, and the plasma was divided into 500 μl aliquots and freezed at −80° C.
The following parameters were determined:
Tmax: time wherein Cmax is reached.
AUC: area subtended to the concentration-time curve calculated by means of the linear trapezoidal rule.

[1] = after the last administration (day 8)

Substance: 2-(2-fluoro-4-phenyl-phenyl) propionic acid [FP]
- FP average plasma concentrations (1 hour after the last administration (day 8)): 0.182 µg/mL
- FP average plasma concentrations (2 hours after the last administration (day 8)): 0.144 µg/mL
- FP average plasma concentrations (3 hours after the last administration (day 8)): 0.115 µg/mL
- FP average plasma concentrations (4 hours after the last administration (day 8)): 0.096 µg/mL
- FP average plasma concentrations (6 hours after the last administration (day 8)): 0.067 µg/mL
- FP average plasma concentrations (8 hours after the last administration (day 8)): 0.045 µg/mL
- FP average plasma concentrations (10 hours after the last administration (day 8)): 0.029 µg/mL
- FP average plasma concentrations (12 hours after the last administration (day 8)): 0.020 µg/mL
- FP average plasma concentrations (16 hours after the last administration (day 8)): 0.008 µg/mL
- FP average plasma concentrations (24 hours after the last administration (day 8)): 0.001 µg/mL
- FP systemic concentrations (after repeated oral nebulization, healthy volunteers): very low
- AUC0-inf. [1]: 1140 ng·h/mL
- AUC0-inf. higher than the AUC at the last point [1]: ca. 20%
- Cmax (after the last administration (day 8), Example 1 composition nebulized in oral cavity, healthy volunteers): 182 ± 50 ng/mL
- Tmax (after the last administration (day 8), Example 1 composition, healthy volunteers): 1 h
- AUC0-24 (after the last administration (day 8), linear trapezoidal rule): 940 ng·h/mL
- FP average plasma concentrations (day 1, time 0 (before the first dose), Example 1 composition, 26 healthy volunteers): 0.000 µg/mL
- FP average plasma concentrations (day 4, time 0, two 200 μl nebulizations three times a day, Example 1 composition): 0.043 µg/mL
- FP average plasma concentrations (day 6, time 0, two 200 μl nebulizations three times a day, Example 1 composition): 0.042 µg/mL
- FP average plasma concentrations (day 7, time 0, two 200 μl nebulizations three times a day, Example 1 composition): 0.039 µg/mL
- FP average plasma concentrations (day 8, time 0, after seven days of two 200 μl nebulizations three times a day, Example 1 composition): 0.040 µg/mL
- amount absorbed, times lower than solutions of the same concentration administered by oral route (oropharyngeal application versus literature oral data (Stalker 1991; Gonzalez-Younes 1991)): about 10 times
- FP accumulation in plasma after repeated administrations (three times a day for seven days, plasma on days 1, 4, 6, 7 and 8): no FP accumulation

From patent publication US20120238630A1, “COMPOSITIONS COMPRISING NONSTEROIDAL ANTI - INFLAMMATORY DRUGS” (Alfa Wassermann S.P.A., priority 2009, published 2012)
